# Results from publication PMC11882969 (Nature Communications, 2025).
# Values joined by “and” are separate entries in the source; they are usually repeats but may differ in a detail not shown here. Equal values may be shown once.
# Tests used:
# [1] = target: T1, hCB1 (Homo sapiens, UniProt P21554); experiment: GloSensor cAMP accumulation assay; type: cell-based
# Experimental: Briefly, hCB1-expressing cells were transfected with the GloSensor cAMP DNA construct overnight. […] The results were analyzed using GraphPad Prism 9. Each experiment was performed in triplicate and functional IC50 values were determined from the mean of three independent experiments.
# [2] = target: T1, hCB1; experiment: DiscoverX PathHunter β-arrestin-2 recruitment; type: cell-based;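 also: CHO-K1 cells expressing hCB1, agonist mode, compound exposure with 1% vehicle, chemiluminescence read-out of the β-arrestin-2 recruitment signal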
# [3] = tested on: mice; experiment: Tail flick, 50 °C water bath; type: in vivo, mouse; settings: individual animals, sheet Figure7b, test not given
# [4] = target: hCB2 (Homo sapiens, UniProt P34972); experiment: Cerep HTRF cAMP inhibition assay, hCB2 CHO-K1; type: cell-based; set-up: host or cells: HEK293SL cells, transient PEI transfection; settings: for functional response, concentration-response point (FigS7d): replicate columns;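 as to all read-outs here: compounds incubated 30 min at 37 °C with hCB2 CHO-K1 cells, cAMP detected by HTRF, HBSS as basal and reference agonist as stimulated control, run in triplicate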
# Experimental: The hCB1/2 CHO-K1 cells (ATCC: CCL-61) are suspended in HBSS buffer (Invitrogen) complemented with 20 mM HEPES (pH 7.4), then distributed in microplates at a density of 5.103 cells/well in the presence of either of the following: HBSS (basal control), the reference agonist (stimulated control) or the test compounds. […] Following 30 min incubation at 37 °C, the cells are lysed, and the fluorescence acceptor (D2-labeled cAMP) and fluorescence donor (anti-cAMP antibody labeled with europium cryptate) are added. […] Each measurement was done in triplicate.
# [5] = tested on: CB1R; experiment: Bimane fluorescence of labeled CB1R; type: biochemical, human; settings: 10 μM ligand; apo 459 nm
# Experimental: A minimal cysteine version of CB1R was generated[85] where all the cysteine residues (except C256 and C264) were mutated to alanine. […] Excess label was removed using size exclusion chromatography on a Superdex 200 10/300 Increase column in 20 mM HEPES pH 7.5, 100 mM NaCl and 0.01% MNG/0.001% CHS. Bimane-labeled CB1R at […] was incubated with ligands (10 μM) for one hour at room temperature. Fluorescence data was collected at room temperature in a 150 μL cuvette with a FluorEssence v3.8 software on a Fluorolog instrument (Horiba) in photon-counting mode. Bimane fluorescence was measured by excitation at 370 nm with excitation and emission bandwidth passes of 4 nm. The emission spectra were recorded from 410 to 510 nm with 1 nm increment and 0.1 s integration time.
# Sequence of hCB2 (P34972 whole entry): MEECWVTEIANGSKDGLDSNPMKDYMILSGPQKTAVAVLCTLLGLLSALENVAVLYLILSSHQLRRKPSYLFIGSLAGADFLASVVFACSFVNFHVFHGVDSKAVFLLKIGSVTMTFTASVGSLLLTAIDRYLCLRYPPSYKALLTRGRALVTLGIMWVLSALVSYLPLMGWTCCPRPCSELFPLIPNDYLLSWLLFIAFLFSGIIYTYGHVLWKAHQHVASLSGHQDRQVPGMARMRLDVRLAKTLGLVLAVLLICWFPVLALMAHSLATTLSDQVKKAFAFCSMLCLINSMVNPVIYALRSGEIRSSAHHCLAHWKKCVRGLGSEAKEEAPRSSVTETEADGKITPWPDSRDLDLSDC
# T1 sequence (P21554 whole entry): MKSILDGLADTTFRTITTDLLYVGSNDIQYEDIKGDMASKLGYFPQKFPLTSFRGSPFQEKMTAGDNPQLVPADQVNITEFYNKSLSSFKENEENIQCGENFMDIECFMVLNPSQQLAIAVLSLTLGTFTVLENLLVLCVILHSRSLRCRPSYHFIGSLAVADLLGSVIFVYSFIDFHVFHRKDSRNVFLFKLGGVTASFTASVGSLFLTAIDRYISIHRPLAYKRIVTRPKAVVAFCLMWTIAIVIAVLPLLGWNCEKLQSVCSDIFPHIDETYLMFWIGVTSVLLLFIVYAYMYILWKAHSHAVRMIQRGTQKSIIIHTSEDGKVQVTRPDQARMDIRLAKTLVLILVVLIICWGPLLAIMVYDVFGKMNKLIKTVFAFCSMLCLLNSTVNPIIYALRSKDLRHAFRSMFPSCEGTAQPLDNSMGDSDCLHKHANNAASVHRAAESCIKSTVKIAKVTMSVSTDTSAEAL
smiles,measurement,setting,value
COC(=O)C(C)(NC(=O)c1cc(C)n(-c2cccc(C(F)(F)F)c2)n1)c1cccs1 (stereo not shown) [‘4042],Emax,[1],91%
same,Glosensor cAMP pEC50,[1],10.4 [10.3 – 10.5]
same,DiscoverX ß-arrestin recruitment pEC50,[2],8.7 [8.3 – 9.6]
same,response at log[M] -5 (FigS4f),"[2]; log[M] = -5, individual replicates",61.1792 and 63.739
same,response at log[M] -5.47712 (FigS4f),"[2]; log[M] = -5.47712, individual replicates",59.4535 and 60.8053
same,response at log[M] -5.95424 (FigS4f),"[2]; log[M] = -5.95424, individual replicates",62.531 and 63.2501
same,response at log[M] -6.43136 (FigS4f),"[2]; log[M] = -6.43136, individual replicates",63.3939 and 54.9092
same,response at log[M] -6.90849 (FigS4f),"[2]; log[M] = -6.90849, individual replicates",60.9779 and 60
same,response at log[M] -7.38561 (FigS4f),"[2]; log[M] = -7.38561, individual replicates",55.1393 and 55.8296
same,response at log[M] -7.86273 (FigS4f),"[2]; log[M] = -7.86273, individual replicates",45.8781 and 43.2321
same,response at log[M] -8.33985 (FigS4f),"[2]; log[M] = -8.33985, individual replicates",34.3448 and 36.6457
same,response at log[M] -8.81697 (FigS4f),"[2]; log[M] = -8.81697, individual replicates",21.5459 and 25.2274
same,response at log[M] -9.29409 (FigS4f),"[2]; log[M] = -9.29409, individual replicates",9.61 and 9.437
same,EC50,[2]; read-out: DiscoverX ß-arrestin recruitment EC50,2.3 nM
same,Emax,[2]; read-out: DiscoverX ß-arrestin recruitment Emax,71%
same,Response relative to baseline (baseline about 100),"[3]; '4042 0.05 mg/kg, 0.05 mg/kg",262 and 191 and 164 and 198 and 183
same,Response relative to baseline (baseline about 100),"[3]; '4042 0.1 mg/kg, 0.1 mg/kg",419.4 and 155.9 and 181.4 and 122.5 and 239.8
same,Emax,"[4]; CHO-K1, hCB2",72%
same,"functional response, concentration-response point (FigS7d)",[4]; Concentration [M] 1e-12,9.2 and 15.9 and 20.5
same,"functional response, concentration-response point (FigS7d)",[4]; Concentration [M] 1e-11,54.5 and 33.7 and 39.7
same,"functional response, concentration-response point (FigS7d)",[4]; Concentration [M] 1e-10,72.4 and 68.7 and 74.5
same,"functional response, concentration-response point (FigS7d)",[4]; Concentration [M] 1e-9,87.6 and 76.3 and 78.1
same,"functional response, concentration-response point (FigS7d)",[4]; Concentration [M] 1e-8,74.4 and 84.9 and 81.3
same,"functional response, concentration-response point (FigS7d)",[4]; Concentration [M] 1e-7,79.5 and 79.9 and 79.2
same,"functional response, concentration-response point (FigS7d)",[4]; Concentration [M] 1e-6,80.1 and 76.3 and 83.8
same,Cerep cAMP pEC50,[4]; hCB2,10.95 [10.7 – 11.6]
same,EC50,[4]; hCB2,0.011 nM
COC(=O)[C@](C)(NC(=O)c1cc(C)n(-c2cccc(C(F)(F)F)c2)n1)c1cccs1 [‘8690],bimane spectrum λmax,[5],459 nm
COC(=O)C(NC(=O)c1cc(C)n(-c2cccc(C(F)(F)F)c2)n1)c1cccs1 (stereo not shown) [‘60154],EC50,[1],25.2 nM
same,Emax,[1],82%
same,Glosensor cAMP pEC50,[1],7.6 [7.4 – 7.8]
